Test results reported in PubChem BioAssay (NCI).
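Method: 48-hour compound exposure of cells in 96-well plates, five concentrations, linear interpolation of endpoints. TGI: total growth inhibition.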

Tests used:
M19-MEL melanoma = assay: DTP human tumour cell line panel, 48 h
HOP-18 NSCLC = assay: DTP human tumour cell line panel, 48 h

CCOC(=O)c1cc(Cl)ccc1OC(N)=O
TGI (M19-MEL melanoma): > 100 µM
TGI (HOP-18 NSCLC): > 100 µM
